Test results: paper PMC11084959 (International Journal of Molecular Sciences, 2024)
Entries after “also recorded” stand apart in the source; their conditions may differ. Where a SMILES comes first, the peptide text is derived from it. Bridges are numbered along the chain shown (N, C = ends). Where no end group is shown, it is not given here.

Key:
[1] = biological target: T1, recombinant hCaV3.2 channels (Homo sapiens, UniProt O95180); test: QPatch whole-cell patch-clamp, CaV3.2; type: cell-based
T1 construct: expressed in transfected cells
Method: (§1) The human embryonic kidney 293 (HEK 293) cell lines (from Emmanuel Bourinet, Montpellier, France) stably expressing CaV3.2 or CaV3.3 [41] were cultured under 5% carbon dioxide at 37 °C in Dulbecco’s Modified Eagle Medium (DMEM) Glutamax (Gibco, Life Technologies, Carlsbad, CA, USA) supplemented with 10% (v/v) fetal bovine serum (FBS), 100 U/mL penicillin, 100 μg/mL streptomycin (Gibco, Life Technologies), and 750 μg/mL geneticin (G418) (Gibco, Life Technologies). The Chinese Hamster Ovary (CHO) cell lines (Emmanuel Bourinet, Montpellier, France) expressing CaV3.1 [42] were cultured under 5% carbon dioxide at 37 °C in Alpha Minimum Essential Media (MEM) Glutamax (Gibco, Life Technologies), supplemented with 10% (v/v) fetal bovine serum (FBS) and 300 μg/mL geneticin (G418) (Gibco, Life Technologies). The human neuroblastoma SH-SY5Y cells (Victor Diaz, Goettingen, Germany) were cultured under 5% carbon dioxide at 37 °C in RPMI 1640 antibiotic-free medium (Invitrogen, Carlsbad, CA, USA), supplemented with 15% FBS and 2 mM GlutaMAX™ (Invitrogen). D-PBS (Gibco, Life Technologies) was used to wash the cells, and 0.25% Trypsin-EDTA (Gibco, Life Technologies) was used to detach the cells from the flask surface. They were split in a ratio of 1:5 (ideally 1000 cells/cm^2) when they reached 70–80% confluence (every 2–3 days).
(§2) Whole-cell patch-clamp experiments were performed on an automated electrophysiology platform QPatch 16 X (Sophion Bioscience A/S, Ballerup, Denmark) in a single-hole configuration using 16-channel planar patch chip QPlates (Sophion Bioscience A/S). The extracellular recording solution contained, in mM: TEACl 157, MgCl2 0.5, CaCl2 5, and HEPES 10; pH 7.4 adjusted with TEAOH; and osmolarity 320 mOsm. The intracellular pipette solution contained, in mM: CsF 140, EGTA 1, HEPES 10, and NaCl 10; pH 7.2 adjusted with CsOH; and osmolarity 325 mOsm. […]
(§3) The data were plotted and analyzed using GraphPad Prism v8.0 (GraphPad Software Inc., San Diego, CA, USA). […]

[2] = biological target: T2, recombinant hCaV3.3 channels (Homo sapiens, UniProt Q9P0X4); test: QPatch whole-cell patch-clamp, CaV3.3; type: cell-based
T2 construct: expressed in transfected cells
Method: as §1, §2, §3

[3] = tested on: recombinant hCaV3.1 channel; test: QPatch whole-cell patch-clamp, CaV3.1; type: cell-based; details: human CaV3.1 in CHO cells
Method: as §1, with “They were split in a ratio of 1:5 (ideally 1000 cells/cm^2) when they reached 70–80% confluence (every 2–3 days).” left out
as §3

human HVA N-type CaV2.2 = test: N-type CaV2.2 FLIPR assay in SH-SY5Y cells; type: cell-based; details: 0.781–200 µM, 10 µM nifedipine, agonist 90 mM KCl + 5 mM CaCl2, n = 4
Method: as §1, with “D-PBS (Gibco, Life Technologies) was used to wash the cells, and 0.25% Trypsin-EDTA (Gibco, Life Technologies) was used to detach the cells from the flask surface. They were split in a ratio of 1:5 (ideally 1000 cells/cm^2) when they reached 70–80% confluence (every 2–3 days).” left out
(§4) SH-SY5Y cells were seeded into 384-well black wall clear bottom plates at a density of 15,000 cells per well, resulting in 90–95% confluence after 24 h. […] The fluorescence readings were recorded and converted as described previously, and an agonist containing 90 mM KCl + 5 mM CaCl2 was used in the second addition.

L-type CaVs = test: L-type CaV FLIPR assay in SH-SY5Y cells; type: cell-based, human; details: 0.781–200 µM, 1 µM CVID, agonist 90 mM KCl + 5 mM CaCl2, n = 4
Method: as §1, with “D-PBS (Gibco, Life Technologies) was used to wash the cells, and 0.25% Trypsin-EDTA (Gibco, Life Technologies) was used to detach the cells from the flask surface. They were split in a ratio of 1:5 (ideally 1000 cells/cm^2) when they reached 70–80% confluence (every 2–3 days).” left out
as §4

[4] = tested on: Lucilia cuprina (Australian sheep blowflies); test: Insecticidal activity against sheep blowflies (injection); type: in vivo; details: 1, 4 and 10 μg per fly injected; 10 flies per group; paralytic effects at 0.5, 1, 2 and 24 h
[5] = tested on: T-type CaVs (CaV3.1 and CaV3.2); details: ref [9],[10]; cited from earlier work
Description: Scorpions are venomous arachnids of the order Scorpiones, with around 2798 currently (December 2023) described species distributed on all continents except Antarctica. Scorpion venoms are complex mixtures of peptides, enzymes, mucoproteins, amino acids (aa), nucleotides, lipids, amines, heterocyclic components, inorganic salts, and probably other yet to be described substances. They are rich sources of neurotoxic polypeptides that recognize and bind to ion channels of excitable and non-excitable cells and modulate their functional properties. Based on the specific binding propertie ...

T2 sequence (Q9P0X4 whole entry): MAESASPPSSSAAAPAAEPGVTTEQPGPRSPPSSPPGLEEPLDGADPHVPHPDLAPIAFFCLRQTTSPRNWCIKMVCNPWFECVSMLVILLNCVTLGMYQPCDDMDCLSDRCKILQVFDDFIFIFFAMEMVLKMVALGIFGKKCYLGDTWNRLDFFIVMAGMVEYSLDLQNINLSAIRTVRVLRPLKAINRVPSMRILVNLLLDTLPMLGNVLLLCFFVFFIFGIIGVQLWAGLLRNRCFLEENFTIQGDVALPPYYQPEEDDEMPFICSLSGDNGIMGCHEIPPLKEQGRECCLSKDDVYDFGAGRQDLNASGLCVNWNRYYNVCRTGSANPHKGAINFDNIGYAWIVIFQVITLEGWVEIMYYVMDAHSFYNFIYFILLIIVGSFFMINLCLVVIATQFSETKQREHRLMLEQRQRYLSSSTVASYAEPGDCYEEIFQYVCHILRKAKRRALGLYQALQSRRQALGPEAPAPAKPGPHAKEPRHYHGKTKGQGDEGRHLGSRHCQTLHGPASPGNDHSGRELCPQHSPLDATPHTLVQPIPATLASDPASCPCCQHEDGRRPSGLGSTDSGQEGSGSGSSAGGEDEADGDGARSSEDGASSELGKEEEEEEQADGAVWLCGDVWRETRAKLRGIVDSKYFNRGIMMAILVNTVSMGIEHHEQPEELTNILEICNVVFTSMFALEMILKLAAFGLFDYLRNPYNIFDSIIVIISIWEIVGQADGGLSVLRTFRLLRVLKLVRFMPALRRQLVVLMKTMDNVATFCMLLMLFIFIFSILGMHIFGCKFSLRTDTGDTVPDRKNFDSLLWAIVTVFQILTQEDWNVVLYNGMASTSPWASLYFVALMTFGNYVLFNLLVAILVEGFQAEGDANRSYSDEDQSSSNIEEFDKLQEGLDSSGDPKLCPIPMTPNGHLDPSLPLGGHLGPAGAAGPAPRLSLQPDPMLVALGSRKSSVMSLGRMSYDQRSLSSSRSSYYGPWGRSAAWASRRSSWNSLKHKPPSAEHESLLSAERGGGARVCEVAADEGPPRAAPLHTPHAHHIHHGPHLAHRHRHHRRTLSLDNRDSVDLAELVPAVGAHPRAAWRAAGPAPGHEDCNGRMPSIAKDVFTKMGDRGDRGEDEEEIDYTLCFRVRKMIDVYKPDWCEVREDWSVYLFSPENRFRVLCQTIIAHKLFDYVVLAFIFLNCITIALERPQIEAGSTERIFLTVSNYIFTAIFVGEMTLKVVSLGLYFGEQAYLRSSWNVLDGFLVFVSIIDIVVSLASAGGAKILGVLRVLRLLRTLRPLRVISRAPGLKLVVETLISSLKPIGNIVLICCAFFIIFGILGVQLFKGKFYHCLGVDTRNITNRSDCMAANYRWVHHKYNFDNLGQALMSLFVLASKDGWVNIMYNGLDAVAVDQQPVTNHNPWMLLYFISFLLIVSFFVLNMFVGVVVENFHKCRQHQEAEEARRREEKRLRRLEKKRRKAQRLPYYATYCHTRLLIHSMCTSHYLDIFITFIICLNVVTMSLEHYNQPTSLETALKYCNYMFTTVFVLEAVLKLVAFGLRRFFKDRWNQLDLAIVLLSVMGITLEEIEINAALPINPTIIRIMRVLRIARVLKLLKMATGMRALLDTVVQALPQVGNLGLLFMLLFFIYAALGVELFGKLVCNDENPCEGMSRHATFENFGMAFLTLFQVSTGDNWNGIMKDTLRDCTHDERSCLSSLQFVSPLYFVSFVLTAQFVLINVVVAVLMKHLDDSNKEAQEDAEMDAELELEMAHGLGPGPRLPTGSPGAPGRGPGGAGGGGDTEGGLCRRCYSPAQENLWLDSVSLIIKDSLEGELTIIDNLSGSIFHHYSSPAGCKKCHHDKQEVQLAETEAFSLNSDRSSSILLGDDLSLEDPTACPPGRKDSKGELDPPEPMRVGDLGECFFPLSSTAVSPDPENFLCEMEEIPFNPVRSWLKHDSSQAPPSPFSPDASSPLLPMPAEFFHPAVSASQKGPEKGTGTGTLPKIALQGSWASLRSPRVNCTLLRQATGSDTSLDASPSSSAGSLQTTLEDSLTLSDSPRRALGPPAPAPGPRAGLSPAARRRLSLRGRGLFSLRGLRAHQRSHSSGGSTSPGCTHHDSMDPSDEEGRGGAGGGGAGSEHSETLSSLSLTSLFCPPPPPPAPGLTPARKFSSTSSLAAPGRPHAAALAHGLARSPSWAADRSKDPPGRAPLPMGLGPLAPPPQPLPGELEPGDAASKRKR
T1 sequence (O95180 whole entry): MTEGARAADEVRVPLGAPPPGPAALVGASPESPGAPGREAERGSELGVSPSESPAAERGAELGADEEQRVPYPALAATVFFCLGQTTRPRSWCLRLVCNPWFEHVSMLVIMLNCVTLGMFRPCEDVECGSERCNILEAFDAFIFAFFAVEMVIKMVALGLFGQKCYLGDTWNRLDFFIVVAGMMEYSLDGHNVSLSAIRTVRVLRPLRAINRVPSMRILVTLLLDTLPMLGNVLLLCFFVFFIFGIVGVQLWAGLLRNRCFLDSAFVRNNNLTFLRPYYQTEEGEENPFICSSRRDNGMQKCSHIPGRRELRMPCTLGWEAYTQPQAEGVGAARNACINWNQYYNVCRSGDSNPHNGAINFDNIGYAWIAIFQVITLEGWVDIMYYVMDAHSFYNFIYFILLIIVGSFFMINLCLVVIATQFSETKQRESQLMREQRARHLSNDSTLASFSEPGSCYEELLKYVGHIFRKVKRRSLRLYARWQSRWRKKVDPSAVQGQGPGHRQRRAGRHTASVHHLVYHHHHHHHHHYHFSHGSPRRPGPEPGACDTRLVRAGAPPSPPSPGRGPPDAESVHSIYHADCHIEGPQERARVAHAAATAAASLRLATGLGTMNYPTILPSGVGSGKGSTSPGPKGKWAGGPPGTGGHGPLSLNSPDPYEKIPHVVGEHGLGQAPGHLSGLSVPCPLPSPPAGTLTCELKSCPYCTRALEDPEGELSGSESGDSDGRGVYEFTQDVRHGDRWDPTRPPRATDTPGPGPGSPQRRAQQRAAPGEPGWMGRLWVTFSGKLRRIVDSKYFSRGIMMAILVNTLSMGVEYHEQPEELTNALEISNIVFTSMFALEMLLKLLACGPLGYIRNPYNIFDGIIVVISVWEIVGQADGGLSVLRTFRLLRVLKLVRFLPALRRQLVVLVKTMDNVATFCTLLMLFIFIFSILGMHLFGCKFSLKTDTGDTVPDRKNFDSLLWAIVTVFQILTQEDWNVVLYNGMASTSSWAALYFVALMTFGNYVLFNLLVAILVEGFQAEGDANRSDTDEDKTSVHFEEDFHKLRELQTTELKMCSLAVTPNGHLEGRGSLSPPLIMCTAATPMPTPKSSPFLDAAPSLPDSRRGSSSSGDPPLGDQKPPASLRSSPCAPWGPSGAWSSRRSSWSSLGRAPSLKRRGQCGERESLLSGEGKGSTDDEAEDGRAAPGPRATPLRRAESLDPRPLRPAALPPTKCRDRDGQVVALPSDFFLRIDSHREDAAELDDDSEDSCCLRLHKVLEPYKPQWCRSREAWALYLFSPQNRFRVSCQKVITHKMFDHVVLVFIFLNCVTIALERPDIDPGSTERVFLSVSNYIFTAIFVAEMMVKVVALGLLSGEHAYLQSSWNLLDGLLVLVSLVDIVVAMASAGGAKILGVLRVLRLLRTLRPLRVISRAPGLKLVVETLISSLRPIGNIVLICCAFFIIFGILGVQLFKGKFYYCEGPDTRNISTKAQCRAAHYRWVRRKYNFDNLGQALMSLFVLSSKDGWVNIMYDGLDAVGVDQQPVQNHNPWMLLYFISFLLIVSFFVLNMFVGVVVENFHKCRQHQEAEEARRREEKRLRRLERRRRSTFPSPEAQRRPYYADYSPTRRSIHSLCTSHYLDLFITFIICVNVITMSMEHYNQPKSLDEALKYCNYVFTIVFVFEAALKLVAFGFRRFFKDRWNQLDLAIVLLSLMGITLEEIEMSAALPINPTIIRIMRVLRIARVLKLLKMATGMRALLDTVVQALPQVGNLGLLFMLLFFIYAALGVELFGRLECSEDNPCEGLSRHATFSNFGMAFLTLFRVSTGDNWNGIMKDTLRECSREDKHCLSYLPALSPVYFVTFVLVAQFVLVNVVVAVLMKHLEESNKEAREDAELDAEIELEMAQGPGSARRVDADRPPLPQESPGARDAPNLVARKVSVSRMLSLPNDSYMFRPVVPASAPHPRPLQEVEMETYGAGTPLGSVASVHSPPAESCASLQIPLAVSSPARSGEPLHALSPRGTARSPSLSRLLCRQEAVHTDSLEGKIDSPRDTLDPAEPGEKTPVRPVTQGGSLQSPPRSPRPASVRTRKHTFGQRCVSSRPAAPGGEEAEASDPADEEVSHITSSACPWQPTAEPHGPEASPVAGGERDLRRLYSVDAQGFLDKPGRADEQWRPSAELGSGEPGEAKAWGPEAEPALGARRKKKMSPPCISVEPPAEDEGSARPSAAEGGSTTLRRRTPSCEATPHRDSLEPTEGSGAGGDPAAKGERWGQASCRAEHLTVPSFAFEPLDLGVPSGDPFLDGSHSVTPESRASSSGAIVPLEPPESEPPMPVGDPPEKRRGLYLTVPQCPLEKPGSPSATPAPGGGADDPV

C[C@@H](O)[C@@H]1NC(=O)[C@@H](NC(=O)[C@@H](N)Cc2c[nH]cn2)CSSC[C@@H](C(=O)N[C@@H](Cc2c[nH]c3ccccc23)C(N)=O)NC(=O)[C@H](Cc2c[nH]cn2)NC(=O)[C@H](CC(N)=O)NC(=O)[C@H](CO)NC(=O)[C@H](CC(N)=O)NC(=O)[C@@H]2CCCN2C1=O [Hf1a-NH2] (H-HCTPNSNHCW-NH2; disulfide 2-9)
inhibition at 25 µM ([1]; 25 μM, holding −90 mV, 200 ms to −25 mV, n = 4, read-out: CaV3.2 current inhibition at 25 μM): 31.7%
IC50 ([1]; partial inhibition, QPatch, holding −90 mV, 200 ms steps to −25 mV, 5 mM CaCl2, 0.1% BSA, pH 7.4, n = 4, means ± SEM, read-out: IC50 (CaV3.2 depolarized currents)): 1180 nM
inhibition at 25 µM ([2]; 25 μM, holding −90 mV, 200 ms to −10 mV, n = 4, read-out: CaV3.3 current inhibition at 25 μM): 44.6%
IC50 ([2]; partial inhibition, QPatch, holding −90 mV, 200 ms steps to −10 mV, 5 mM CaCl2, 0.1% BSA, pH 7.4, n = 4, means ± SEM, read-out: IC50 (CaV3.3 depolarized currents)): 490 nM
Adverse effects on locomotor performance (24 h post-injection, intraplantar): no adverse effects on locomotor performance
Abnormal motor function during treadmill run (mouse, in vivo): no abnormal motor functions like foot slips were noticed
Distance covered on treadmill (mouse, in vivo): showed no difference

HCTPNSNHCW (disulfide 2-9 (inferred)) [Hf1a-OH]
Effect on CaV3.1 current (in words) [3]: failed to show activity in any of the three subtypes; also recorded: did not show activity against any of the three T-type subtypes
Effect on CaV3.2 current (in words) ([1]; QPatch, human CaV3.2 in HEK 293 cells): failed to show activity in any of the three subtypes; also recorded: did not show activity against any of the three T-type subtypes
Effect on CaV3.3 current (in words) ([2]; QPatch, human CaV3.3 in HEK 293 cells): failed to show activity in any of the three subtypes; also recorded: did not show activity against any of the three T-type subtypes
Effect on N-type CaV2.2 (human HVA N-type CaV2.2): neither form showed activity; also recorded: neither form of ω-Buthitoxin-Hf1a affected N-type or L-type CaVs; also recorded: Neither Hf1a-NH2 nor Hf1a-OH showed activity against L- and N-type HVA CaVs
Effect on L-type CaVs (L-type CaVs): neither form showed activity; also recorded: neither form of ω-Buthitoxin-Hf1a affected N-type or L-type CaVs; also recorded: Neither Hf1a-NH2 nor Hf1a-OH showed activity against L- and N-type HVA CaVs
Insecticidal activity against adult sheep blowflies [4]: no insecticidal activity; also recorded: neither Hf1a-OH nor Hf1a-NH2 showed observable insecticidal activity

B1: kurtoxin (protein, UniProt P58910 1-63, looked up)
Kurtoxin: KIDGYPVDYWNCKRICWYNNKYCNDLCKGLKADSGYCWGWTLSCYCQGLPDNARIKRSGRCRA
Selective binding to T-type CaVs (CaV3.1 and CaV3.2) [5]: first and only scorpion toxin shown to selectively bind T-type CaVs (CaV3.1 and CaV3.2)
